From US8354422B2, “Pyrimidine inhibitors of kinase activity” (Abbott Laboratories Inc., priority 2009, dated 2013)

Each compound was assayed against T1, C-terminal GST-tagged, recombinant, human IGF-1R, amino acids 954-1367 (Homo sapiens, UniProt P08069) (assay: IGF-1R kinase activity, homogenous time-resolved fluorescence (HTRF) in vitro kinase assay). Settings: IGF-1R kinase HTRF assay, ATP 50 μM, biotinylated peptide substrate 0.5 μM, 60 minutes at room temperature.
T1 construct: human IGF-1R, amino acids 954-1367 expressed by baculovirus in Sf21 cells; GST (C); purchased Cell Signaling Technology; host or cells: baculovirus in Sf21 cells
T1 sequence (P08069 954-1367): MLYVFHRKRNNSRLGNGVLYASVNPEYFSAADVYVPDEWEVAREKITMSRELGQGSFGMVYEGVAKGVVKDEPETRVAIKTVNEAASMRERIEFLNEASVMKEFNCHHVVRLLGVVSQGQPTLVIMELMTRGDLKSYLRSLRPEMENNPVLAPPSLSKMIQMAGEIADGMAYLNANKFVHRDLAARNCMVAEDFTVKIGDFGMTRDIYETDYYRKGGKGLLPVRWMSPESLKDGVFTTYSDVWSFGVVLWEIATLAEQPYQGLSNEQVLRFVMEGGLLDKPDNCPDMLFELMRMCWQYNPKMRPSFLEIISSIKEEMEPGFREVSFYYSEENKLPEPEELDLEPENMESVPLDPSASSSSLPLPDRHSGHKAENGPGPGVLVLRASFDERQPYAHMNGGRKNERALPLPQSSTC
Type: biochemical
Method: IGF-1R kinase activity was assayed by a homogenous time-resolved fluorescence (HTRF) in vitro kinase assay (Mathis, G., HTRF(R) Technology. J Biomol Screen, 1999. 4(6): p. 309-314). Specifically, 10 μL C-terminal GST-tagged, recombinant, human IGF-1R, amino acids 954-1367 expressed by baculovirus in Sf21 cells (Cell Singaling Technology) was mixed with 10 μL inhibitor (various concentrations, 2% final DMSO) and 10 μL of ATP (50 μM final concentration) in reaction buffer (50 mM HEPES, pH […], 2 mM MnCl2, 0.1% BSA and 1 mM DTT, 40 μL final volume). The reaction was initiated by addition of 10 μL of biotinylated peptide substrate (Biotin-Ahx-[…], 0.5 μM final concentration) in a black 384-well plate (Packard). After 60 minutes incubation at room temperature, the reaction was quenched by addition of 60 μL stop/revelation buffer to give 30 mM EDTA, 1 μg/mL streptavidin-APC (Prozyme), 50 ng/mL anti-phosphotyrosine mAb PT66-K Europium Cryptate, 30 mM HEPES, pH 7.5, 120 mM KF, 0.005% Tween-20, 0.05% BSA). The quenched reaction was allowed to stand at room temperature for 1 hour and then read in a time-resolved fluorescence detector (Envision, Perkin Elmer) at 615 nm and 665 nm simultaneously. The ratio between the signal of 615 nm and 665 nm was used in the calculation of the IC50.

Row | Compound | IC50 [nM]
1 | CN(C)CCc1cccc(Nc2nccc(-c3c(-c4ccc(OCc5ccccc5)cc4)nc4ccccn34)n2)c1 [Example 1, 4-{2-[4-(benzyloxy)phenyl]imidazo[1,2-a]pyridin-3-yl}-N-{3-[2-(dimethylamino)ethyl]phenyl}pyrimidin-2-amine] | < 25
2 | COc1cc(N2CCOCC2)ccc1Nc1nccc(-c2c(-c3ccc(OCc4ccccc4)cc3)nc3ccccn23)n1 [Example 2, 4-{2-[4-(benzyloxy)phenyl]imidazo[1,2-a]pyridin-3-yl}-N-(2-methoxy-4-morpholin-4-ylphenyl)pyrimidin-2-amine] | 101 to 500
3 | COc1ccccc1Nc1nccc(-c2c(-c3ccc(OCc4ccccc4)cc3)nc3ccccn23)n1 [Example 3, 4-{2-[4-(benzyloxy)phenyl]imidazo[1,2-a]pyridin-3-yl}-N-(2-methoxyphenyl)pyrimidin-2-amine] | > 1000
4 | CS(=O)(=O)c1cccc(Nc2nccc(-c3c(-c4ccc(OCc5ccccc5)cc4)nc4ccccn34)n2)c1 [Example 4, 4-{2-[4-(benzyloxy)phenyl]imidazo[1,2-a]pyridin-3-yl}-N-[3-(methylsulfonyl)phenyl]pyrimidin-2-amine] | > 1000
5 | CN(C)S(=O)(=O)c1cccc(Nc2nccc(-c3c(-c4ccc(OCc5ccccc5)cc4)nc4ccccn34)n2)c1 [Example 5, 3-[(4-{2-[4-(benzyloxy)phenyl]imidazo[1,2-a]pyridin-3-yl}pyrimidin-2-yl)amino]-N,N-dimethylbenzenesulfonamide] | > 1000
6 | CS(=O)(=O)c1ccc(Nc2nccc(-c3c(-c4ccc(OCc5ccccc5)cc4)nc4ccccn34)n2)cc1 [Example 6, 4-{2-[4-(benzyloxy)phenyl]imidazo[1,2-a]pyridin-3-yl}-N-[4-(methylsulfonyl)phenyl]pyrimidin-2-amine] | > 1000
7 | c1ccc(COc2ccc(-c3nc4ccccn4c3-c3ccnc(Nc4ccccc4)n3)cc2)cc1 [Example 7, 4-{2-[4-(benzyloxy)phenyl]imidazo[1,2-a]pyridin-3-yl}-N-phenylpyrimidin-2-amine] | > 1000
8 | CN(C)CCc1cccc(Nc2nccc(-c3c(-c4ccc(OCc5ccccc5)cc4F)nc4ccccn34)n2)c1 [Example 8, 4-{2-[4-(benzyloxy)-2-fluorophenyl]imidazo[1,2-a]pyridin-3-yl}-N-{3-[2-(dimethylamino)ethyl]phenyl}pyrimidin-2-amine] | 25 to 100
9 | CN(C)CCc1cccc(Nc2nccc(-c3c(-c4ccc(OCc5ccccc5)c(F)c4)nc4ccccn34)n2)c1 [Example 9, 4-{2-[4-(benzyloxy)-3-fluorophenyl]imidazo[1,2-a]pyridin-3-yl}-N-{3-[2-(dimethylamino)ethyl]phenyl}pyrimidin-2-amine] | 25 to 100
10 | Cc1cc(OCc2ccccc2)ccc1-c1nc2ccccn2c1-c1ccnc(Nc2cccc(CCN(C)C)c2)n1 [Example 10, 4-{2-[4-(benzyloxy)-2-methylphenyl]imidazo[1,2-a]pyridin-3-yl}-N-{3-[2-(dimethylamino)ethyl]phenyl}pyrimidin-2-amine] | 101 to 500
11 | CN(C)CCc1cccc(Nc2nccc(-c3c(-c4ccc(OCc5ccccc5)c(Cl)c4)nc4ccccn34)n2)c1 [Example 11, 4-{2-[4-(benzyloxy)-3-chlorophenyl]imidazo[1,2-a]pyridin-3-yl}-N-{3-[2-(dimethylamino)ethyl]phenyl}pyrimidin-2-amine] | 101 to 500
12 | COc1cc(-c2nc3ccccn3c2-c2ccnc(Nc3cccc(CCN(C)C)c3)n2)ccc1OCc1ccccc1 [Example 12, 4-{2-[4-(benzyloxy)-3-methoxyphenyl]imidazo[1,2-a]pyridin-3-yl}-N-{3-[2-(dimethylamino)ethyl]phenyl}pyrimidin-2-amine] | 101 to 500
13 | COc1cc(N2CCC(N3CCN(C)CC3)CC2)ccc1Nc1nccc(-c2c(-c3ccc(OCc4ccccc4)cc3)nc3ccccn23)n1 [Example 13, 4-{2-[4-(benzyloxy)phenyl]imidazo[1,2-a]pyridin-3-yl}-N-{2-methoxy-4-[4-(4-methylpiperazin-1-yl)piperidin-1-yl]phenyl}pyrimidin-2-amine] | 101 to 500
14 | Cc1cc(Nc2nccc(-c3c(-c4ccc(OCc5ccccc5)cc4)nc4ccccn34)n2)n[nH]1 [Example 14, 4-{2-[4-(benzyloxy)phenyl]imidazo[1,2-a]pyridin-3-yl}-N-(5-methyl-1H-pyrazol-3-yl)pyrimidin-2-amine] | > 1000
15 | c1ccc(COc2ccc(-c3nc4ccccn4c3-c3ccnc(Nc4cc(C5CC5)n[nH]4)n3)cc2)cc1 [Example 15, 4-{2-[4-(benzyloxy)phenyl]imidazo[1,2-a]pyridin-3-yl}-N-(3-cyclopropyl-1H-pyrazol-5-yl)pyrimidin-2-amine] | > 1000
16 | COc1ccccc1COc1ccc(-c2nc3ccccn3c2-c2ccnc(Nc3cccc(CCN(C)C)c3)n2)cc1 [Example 16, N-{3-[2-(dimethylamino)ethyl]phenyl}-4-(2-{4-[(2-methoxybenzyl)oxy]phenyl}imidazo[1,2-a]pyridin-3-yl)pyrimidin-2-amine] | 101 to 500
17 | COc1ccc(COc2ccc(-c3nc4ccccn4c3-c3ccnc(Nc4cccc(CCN(C)C)c4)n3)cc2)cc1 [Example 17, N-{3-[2-(dimethylamino)ethyl]phenyl}-4-(2-{4-[(4-methoxybenzyl)oxy]phenyl}imidazo[1,2-a]pyridin-3-yl)pyrimidin-2-amine] | 101 to 500
18 | CN(C)CCc1cccc(Nc2nccc(-c3c(-c4ccc(OCc5ccccc5F)cc4)nc4ccccn34)n2)c1 [Example 18, N-{3-[2-(dimethylamino)ethyl]phenyl}-4-(2-{4-[(2-fluorobenzyl)oxy]phenyl}imidazo[1,2-a]pyridin-3-yl)pyrimidin-2-amine] | 101 to 500
19 | CN(C)CCc1cccc(Nc2nccc(-c3c(-c4ccc(OCc5cccc(F)c5)cc4)nc4ccccn34)n2)c1 [Example 19, N-{3-[2-(dimethylamino)ethyl]phenyl}-4-(2-{4-[(3-fluorobenzyl)oxy]phenyl}imidazo[1,2-a]pyridin-3-yl)pyrimidin-2-amine] | 101 to 500
20 | CN(C)CCc1cccc(Nc2nccc(-c3c(-c4ccc(OCc5ccc(F)cc5)cc4)nc4ccccn34)n2)c1 [Example 20, N-{3-[2-(dimethylamino)ethyl]phenyl}-4-(2-{4-[(4-fluorobenzyl)oxy]phenyl}imidazo[1,2-a]pyridin-3-yl)pyrimidin-2-amine] | 101 to 500
21 | CC(Oc1ccc(-c2nc3ccccn3c2-c2ccnc(Nc3cccc(CCN(C)C)c3)n2)cc1)c1ccccc1 (centres unmarked) [Example 21, N-{3-[2-(dimethylamino)ethyl]phenyl}-4-{2-[4-(1-phenylethoxy)phenyl]imidazo[1,2-a]pyridin-3-yl}pyrimidin-2-amine] | 101 to 500
22 | COc1cc(Cl)ccc1Nc1nccc(-c2c(-c3ccc(OCc4ccccc4)cc3)nc3ccccn23)n1 [Example 22, 4-{2-[4-(benzyloxy)phenyl]imidazo[1,2-a]pyridin-3-yl}-N-(4-chloro-2-methoxyphenyl)pyrimidin-2-amine] | > 1000
23 | COc1cc(-c2nc3ccccn3c2-c2ccnc(Nc3ccc(CCN4CCCC4)cc3)n2)ccc1OCc1ccccc1 [Example 23, 4-{2-[4-(benzyloxy)-3-methoxyphenyl]imidazo[1,2-a]pyridin-3-yl}-N-[4-(2-pyrrolidin-1-ylethyl)phenyl]pyrimidin-2-amine] | 25 to 100
24 | COc1cc(-c2nc3ccccn3c2-c2ccnc(Nc3cccc(CCN4CCCC4)c3)n2)ccc1OCc1ccccc1 [Example 24, 4-{2-[4-(benzyloxy)-3-methoxyphenyl]imidazo[1,2-a]pyridin-3-yl}-N-[3-(2-pyrrolidin-1-ylethyl)phenyl]pyrimidin-2-amine] | 25 to 100
25 | COc1cc(-c2nc3ccccn3c2-c2ccnc(Nc3cccc(N4CCOCC4)c3)n2)ccc1OCc1ccccc1 [Example 25, 4-{2-[4-(benzyloxy)-3-methoxyphenyl]imidazo[1,2-a]pyridin-3-yl}-N-(3-morpholin-4-ylphenyl)pyrimidin-2-amine] | 101 to 500
26 | Cn1cc(Nc2nccc(-c3c(-c4ccc(OCc5ccccc5)cc4)nc4ccccn34)n2)cn1 [Example 26, 4-{2-[4-(benzyloxy)phenyl]imidazo[1,2-a]pyridin-3-yl}-N-(1-methyl-1H-pyrazol-4-yl)pyrimidin-2-amine] | 101 to 500
27 | OCCn1cc(Nc2nccc(-c3c(-c4ccc(OCc5ccccc5)cc4)nc4ccccn34)n2)cn1 [Example 27, 2-{4-[(4-{2-[4-(benzyloxy)phenyl]imidazo[1,2-a]pyridin-3-yl}pyrimidin-2-yl)amino]-1H-pyrazol-1-yl}ethanol] | 101 to 500
28 | Fc1ccc(Nc2nccc(-c3c(-c4ccc(OCc5ccccc5)cc4)nc4ccccn34)n2)cc1 [Example 28, 4-{2-[4-(benzyloxy)phenyl]imidazo[1,2-a]pyridin-3-yl}-N-(4-fluorophenyl)pyrimidin-2-amine] | > 1000
29 | Fc1ccc(Nc2nccc(-c3c(-c4ccc(OCc5ccccc5)cc4)nc4ccccn34)n2)c(F)c1 [Example 29, 4-{2-[4-(benzyloxy)phenyl]imidazo[1,2-a]pyridin-3-yl}-N-(2,4-difluorophenyl)pyrimidin-2-amine] | > 1000
